{
  "source": "patent US20080249123A1",
  "about": "“WORTMANNIN-RAPAMYCIN CONJUGATE AND USES THEREOF” (Wyeth, priority 2007, published 2008)",
  "key": {"HTB44 (A498)": {"system": "HTB44 (A498)", "experiment": "In vitro cell culture growth assay (MTS), HTB44 (A498)", "assay_type": "cell-based, Human", "conditions": "renal line, 3 days after drug treatment", "experimental": "(§1) Human tumor cell lines (Table 3) include prostate lines LNCap and PC3MM2, breast lines MDA468, MCF7, renal line HTB44 (A498), colon line HCT116, and ovarian line OVCAR3. Cells were plated in 96-well culture plates.\n(§2) One day following plating, the following conjugates (inhibitors) were added to cells: • Compound A 42,17′-linked wortmannin-adipate-rapamycin conjugate, diethylamine adduct • Compound B 42,17′-linked wortmannin-adipate-rapamycin conjugate. • Compound C 42,17′-linked wortmannin-succinate-rapamycin conjugate, N,N,N′-trimethyl 1,3-propanediamine adduct • Compound D 42,17′-linked wortmannin-adipate-rapamycin conjugate, diallylamine adduct • Compound E 42,17′-linked wortmannin-adipate-rapamycin conjugate, N,N,N′-trimethyl 1,3-propanediamine adduct • Compound F 42,17′-linked wortmannin-suberate-rapamycin conjugate, N,N,N′-trimethyl 1,3-propanediamine adduct.\n(§3) Three days after drug treatment, viable cell densities were determined by metabolic conversion (by viable cells) of the MTS dye (3-(4,5-dimethylthiazol-2-yl)-5-(3 carboxymethoxyphenyl)-2-(4-sulfophenyl)-2H-tetrazolium, inner salt), a well established cell proliferation assay. The assays were performed using an assay kit purchased from Promega Corp. (Madison, Wis.) following the protocol supplied with the kit. The MTS assay results were read in a 96-well plate reader by measuring absorbance at 490 nm. The effect of each treatment was calculated as percent of control growth relative to the vehicle-treated cells grown in the same culture plate. The drug concentration that conferred 50% inhibition of growth was determined as IC50 (μg/mL). See, Table 3."}, "U87MG Glioma Xenografts": {"system": "U87MG Glioma Xenografts", "experiment": "Xenograft tumor efficacy study, U87MG glioma in nude mice", "assay_type": "in vivo", "experimental": "Female nude mice at 10 weeks of age were inoculated subcutaneously on the flank with 200 μL U87MG (human gliobastoma) tumor cell suspension. U87MG cells were suspended in full growth media and were implanted at 10 million cells per mouse. Mice were staged when tumors reached approximately 200 mm^3 in sizes. Tumor bearing mice at staging (day 0) were randomized into treatment groups (n=10). […]\nThe growth of tumors was monitored twice a week for the duration of the experiment. Tumor size was measured using sliding vernier calipers, and the tumor mass was calculated using the formula (length×Width^2)/2.\nThe experimental methods for drug preparation, dosing route, regimen, etc (listed in the Table 4) were similar to the experiments presented in the Figures. The data in Table 4 and the Figures were derived from multiple and completely different experiments. Within Table 4, the data contained separate experiments."}, "[1]": {"system": "HT29 colon tumor xenograph", "assay_type": "in vivo", "conditions": "1× weekly for four rounds", "experimental": "The effect of 42,17′-linked wortmannin-suberate-rapamycin conjugate, N,N,N′-trimethyl 1,3-propanediamine adduct, prepared as described in Example 4 was studied in a model of human colon cancer.\nThe 42,17′-linked wortmannin-suberate-rapamycin conjugate, N,N,N′-trimethyl 1,3-propanediamine adduct (▪, 15 mg/kg), rapamycin (▴, 10 mg/kg), 17-hydroxywortmannin N,N,N′-trimethyl 1,3-propanediamine adduct (▾, 5 mg/kg) and a physical combination of rapamycin (10 mg/kg) and 17-hydroxywortmannin N,N,N′-trimethyl 1,3-propanediamine adduct (5 mg/kg) were dosed 1× weekly for four rounds against a HT29 colon tumor xenograph. Vehicle served as a negative control ([…])."}, "OVCAR3": {"system": "OVCAR3", "experiment": "In vitro cell culture growth assay (MTS), OVCAR3", "assay_type": "cell-based, Human", "conditions": "ovarian line, 3 days after drug treatment", "experimental": "as §1, §2, §3"}, "HCT116": {"system": "HCT116", "experiment": "In vitro cell culture growth assay (MTS), HCT116", "assay_type": "cell-based, Human", "conditions": "colon line, 3 days after drug treatment", "experimental": "as §1, §2, §3"}, "LNCap": {"system": "LNCap", "experiment": "In vitro cell culture growth assay (MTS), LNCap", "assay_type": "cell-based, Human", "conditions": "prostate line, 3 days after drug treatment", "experimental": "as §1, §2, §3"}, "MDA468": {"system": "MDA468", "experiment": "In vitro cell culture growth assay (MTS), MDA468", "assay_type": "cell-based, Human", "conditions": "breast line, 3 days after drug treatment", "experimental": "as §1, §2, §3"}, "MCF7": {"system": "MCF7", "experiment": "In vitro cell culture growth assay (MTS), MCF7", "assay_type": "cell-based, Human", "conditions": "breast line, 3 days after drug treatment", "experimental": "as §1, §2, §3"}, "[2]": {"system": "A498 renal cell carcinoma xenograph", "experiment": "In vivo anticancer efficacy in HTB44/A498 renal cell carcinoma model", "conditions": "conjugate i.v. 1× weekly 15 mg/kg, 2 rounds; Intron A ip 3× weekly 0.5 mU, 2 weeks", "experimental": "This study utilized a model of renal cancer performed as previously described. See, e.g., Yu K, et al., PWT-458, A Novel Pegylated-17-Hydroxywortmannin, Inhibits Phosphatidylinositol 3-Kinase Signaling and Suppresses Growth of Solid Tumors. Cancer Biol Ther. May 28, 2005; 4(5).\nOn day 23 the Vehicle group ([…]) was redosed with a combination 42,17′-linked wortmannin-suberate-rapamycin N,N,N′-trimethyl 1,3-propanediamine adduct (30 mg/kg) and the Avastin® drug (200 μg) for five rounds. On day 43, the 42,17′-linked wortmannin-suberate-rapamycin conjugate, N,N,N′-trimethyl 1,3-propanediamine adduct group (30 mg/kg) and the Avastin® drug group (200 μg) were redosed with a combination of 42,17′-linked wortmannin-suberate-rapamycin conjugate, N,N,N′-trimethyl 1,3-propanediamine adduct and the Avasting drug for three rounds."}, "PC3MM2": {"system": "PC3MM2", "experiment": "In vitro cell culture growth assay (MTS), PC3MM2", "assay_type": "cell-based, Human", "conditions": "prostate line, 3 days after drug treatment", "experimental": "as §1, §2, §3"}},
  "data": [
    {"substance": "42,17′-linked wortmannin-suberate-rapamycin conjugate, N,N,N′-trimethyl 1,3-propanediamine adduct [Compound F]", "values": [
      {"measurement": "IC50 inhibition of tumor cell growth, HTB44", "setting": "HTB44 (A498)", "result": 2.10, "unit": "µg/mL"},
      {"measurement": "antitumor efficacy versus physical combination (FIG. 3)", "setting": "U87MG Glioma Xenografts; 15 mg/kg, 1× weekly for 2 rounds", "result": "at least as active as the physical combination"},
      {"measurement": "efficacy after a single dose (FIG. 4)", "setting": "U87MG Glioma Xenografts; single dose 30, 45 and 60 mg/kg", "result": "effective in the intermittent regimen"},
      {"measurement": "tolerability (FIG. 5)", "setting": "[1]; 15 mg/kg, in contrast to physical combination", "result": "better tolerated"},
      {"measurement": "tumor reduction (FIG. 5)", "setting": "[1]; conjugate 15 mg/kg, combination rapamycin 10 mg/kg + 17-hydroxywortmannin adduct 5 mg/kg", "result": "significant tumor reduction"},
      {"measurement": "IC50 inhibition of tumor cell growth, OVCAR3", "setting": "OVCAR3", "result": 6.48, "unit": "µg/mL"},
      {"measurement": "IC50 inhibition of tumor cell growth, HCT116", "setting": "HCT116", "result": 12.75, "unit": "µg/mL"},
      {"measurement": "IC50 inhibition of tumor cell growth, LNCap", "setting": "LNCap", "result": 0.06, "unit": "µg/mL"},
      {"measurement": "IC50 inhibition of tumor cell growth, MDA468", "setting": "MDA468", "result": 0.50, "unit": "µg/mL"},
      {"measurement": "IC50 inhibition of tumor cell growth, MCF7", "setting": "MCF7", "result": 0.24, "unit": "µg/mL"},
      {"measurement": "antitumor activity (FIG. 6)", "setting": "[2]", "result": "increased antitumor activity as compared to vehicle and Intron® A reagent alone"},
      {"measurement": "IC50 inhibition of tumor cell growth, PC2MM2", "setting": "PC3MM2", "result": 1.00, "unit": "µg/mL"}
    ]}
  ]
}
